Values after ≈ are worked out from the molar mass of the structure shown. Values joined by “and” are separate entries in the source; they are usually repeats but may differ in a detail not shown here. Equal values may be shown once.
Columns and labels:
Assay in all cases: ≥ marks a high value that may be exact or a test limit, other limits are often not marked, values filed in µg/mL are converted to µM
Bacillus megaterium Bm11 = test system: Bacillus megaterium Bm11
[1] = test system: Escherichia coli ATCC 25922
[2] = test system: Staphylococcus aureus Cowan 1
[3] = test system: Yersinia pseudotuberculosis YPIII
Staphylococcus capitis 1 = test system: Staphylococcus capitis 1
[4] = test system: Candida albicans ATCC 10231
[5] = test system: Staphylococcus aureus NCTC 10788
[6] = test system: Candida albicans NCYC 1467
[7] = test system: Pseudomonas aeruginosa ATCC 27853
[8] = test system: Escherichia coli NCTC 10418
[9] = test system: Enterococcus faecalis NCTC 12697
[10] = test system: Klebsiella pneumoniae ATCC 43816
[11] = test system: Staphylococcus aureus NCTC 12493
[12] = test system: Candida albicans ATCC 90028
[13] = test system: Pseudomonas aeruginosa ATCC 15442
[14] = test system: Acinetobacter baumannii NM124
[15] = test system: Streptococcus mutans ATCC 25175
Escherichia coli K-12 = test system: Escherichia coli K-12
Acinetobacter baumannii = test system: Acinetobacter baumannii
[16] = test system: Escherichia coli ATCC 25726
[17] = test system: Staphylococcus aureus USA 300
[18] = test system: Acinetobacter baumannii NM75
Escherichia coli D31 = test system: Escherichia coli D31
[19] = test system: Acinetobacter baumannii NM8
[20] = test system: Acinetobacter baumannii NM109
[21] = test system: Staphylococcus aureus ATCC 25923
[22] = test system: Acinetobacter baumannii NM35
[23] = test system: Escherichia coli CCT 1457
[24] = test system: Bacillus cereus ATCC 11778
[25] = test system: Staphylococcus aureus CCT 2580
[26] = test system: Staphylococcus epidermidis RP62A/1
[27] = test system: Klebsiella pneumoniae ATCC 700603
[28] = test system: Staphylococcus epidermidis RP62A
[29] = test system: Stenotrophomonas maltophilia B32/4
Pseudomonas aeruginosa = test system: Pseudomonas aeruginosa
Micrococcus luteus = test system: Micrococcus luteus
Klebsiella pneumoniae = test system: Klebsiella pneumoniae
Salmonella typhimurium = test system: Salmonella typhimurium
Serratia marcescens = test system: Serratia marcescens
Shigella dysenteriae = test system: Shigella dysenteriae
Bacillus subtilis = test system: Bacillus subtilis
Candida albicans = test system: Candida albicans
Escherichia coli = test system: Escherichia coli
Proteus mirabilis = test system: Proteus mirabilis

## CC[C@H](C)[C@H](NC(=O)CNC(=O)[C@H](CO)NC(=O)[C@H](CC(C)C)NC(=O)[C@@H](NC(=O)[C@H](CCCN=C(N)N)NC(=O)CNC(=O)[C@@H](NC(=O)[C@H](CC(C)C)NC(=O)[C@H](C)NC(=O)[C@H](CC(C)C)NC(=O)[C@@H](N)Cc1ccccc1)[C@@H](C)CC)C(C)C)C(=O)N[C@@H](CC(C)C)C(N)=O [FLALIGRVLSGIL]
Bacillus megaterium Bm11
  MIC: 2.5 µM (≈ 3.43 µg/mL)
[1]
  MIC: > 40 µM
[2]
  MIC: 2.5 µM (≈ 3.43 µg/mL)
[3]
  MIC: 20 µM (≈ 27.4 µg/mL)
Staphylococcus capitis 1
  MIC: 2.5 µM (≈ 3.43 µg/mL)
[4]
  MIC: 1.25 µM (≈ 1.71 µg/mL)

## CC[C@H](C)[C@H](NC(=O)[C@H](C)NC(=O)[C@H](CO)NC(=O)[C@@H](NC(=O)[C@H](C)NC(=O)[C@H](CCCCN)NC(=O)[C@@H]1CCCN1C(=O)[C@@H](NC(=O)[C@H](CC(C)C)NC(=O)[C@H](CO)NC(=O)[C@H](CC(C)C)NC(=O)[C@@H](N)Cc1ccccc1)[C@@H](C)CC)[C@@H](C)CC)C(=O)N[C@@H](CO)C(=O)N[C@@H](C)C(=O)N[C@@H](CC(C)C)C(=O)N[C@@H](C)C(=O)N[C@@H](CC(N)=O)C(=O)N[C@@H](Cc1cnc[nH]1)C(=O)N[C@@H](Cc1ccccc1)C(N)=O [FLSLIPKAISAISALANHF]
[5]
  MIC: 4 µM (≈ 8.05 µg/mL)
[6]
  MIC: 8 µM (≈ 16.1 µg/mL)
[7]
  MIC: > 512 µM
[8]
  MIC: ≥ 64 µM
[9]
  MIC: ≥ 64 µM
[10]
  MIC: ≥ 256 µM
[11]
  MIC: 16 µM (≈ 32.2 µg/mL)

## CC[C@H](C)[C@H](NC(=O)CN)C(=O)N[C@@H](Cc1c[nH]c2ccccc12)C(=O)N[C@@H](CC(=O)O)C(=O)N[C@H](C(=O)N[C@H](C(=O)N[C@@H](CCCCN)C(=O)N[C@@H](CO)C(=O)N[C@@H](CCSC)C(=O)NCC(=O)N[C@@H](CCCCN)C(=O)N[C@H](C(=O)N[C@@H](Cc1ccccc1)C(=O)N[C@@H](C)C(=O)NCC(=O)N[C@@H](CCCCN)C(=O)N[C@H](C(=O)N[C@@H](CC(C)C)C(=O)N[C@@H](CCC(N)=O)C(=O)N[C@@H](CC(N)=O)C(=O)N[C@@H](CC(C)C)C(N)=O)[C@@H](C)CC)C(C)C)[C@@H](C)CC)[C@@H](C)O [GIWDTIKSMGKVFAGKILQNL]
[12]
  MIC: 12.5 µM (≈ 29 µg/mL)
[13]
  MIC: ≥ 100 µM
[14]
  MIC: 6 µM (≈ 13.9 µg/mL)
[15]
  MIC: ≥ 100 µM
Escherichia coli K-12
  MIC: 25 µM (≈ 58 µg/mL)
Acinetobacter baumannii
  MIC: 12.5 µM (≈ 29 µg/mL)
[16]
  MIC: 25 µM (≈ 58 µg/mL)
[17]
  MIC: 25 µM (≈ 58 µg/mL)
[18]
  MIC: 3 µM (≈ 6.96 µg/mL)
Escherichia coli D31
  MIC: ≥ 32 µM
[19]
  MIC: 6 µM (≈ 13.9 µg/mL)
[20]
  MIC: 6 µM (≈ 13.9 µg/mL)
[21]
  MIC: 25 µM and 22.6 µM
[22]
  MIC: 6 µM (≈ 13.9 µg/mL)
[4]
  MIC: 16 µM (≈ 37.1 µg/mL)

## CC[C@H](C)[C@H](N)C(=O)N[C@@H](CC(=O)O)C(=O)N[C@@H](Cc1c[nH]c2ccccc12)C(=O)N[C@@H](CC(C)C)C(=O)N[C@@H](CCCCN)C(=O)N[C@@H](CC(C)C)C(=O)NCC(=O)N[C@@H](CCCCN)C(=O)N[C@@H](CCSC)C(=O)N[C@H](C(=O)N[C@@H](CCSC)C(=O)N[C@@H](CC(=O)O)C(=O)N[C@H](C(=O)N[C@@H](CC(C)C)C(N)=O)C(C)C)C(C)C [IDWLKLGKMVMDVL]
[13]
  MIC: ≥ 301 µM
[23]
  MIC: ≥ 37.3 µM
[24]
  MIC: ≥ 37.3 µM
[25]
  MIC: 18.7 µM (≈ 31 µg/mL)

## CC[C@H](C)[C@H](N)C(=O)N[C@@H](CC(C)C)C(=O)NCC(=O)N[C@@H](CCCCN)C(=O)N[C@@H](CC(C)C)C(=O)N[C@@H](CC(C)C)C(=O)N[C@@H](CO)C(=O)N[C@H](C(=O)N[C@@H](C)C(=O)N[C@@H](C)C(=O)N[C@@H](CCCCN)C(=O)N[C@@H](CC(C)C)C(=O)N[C@@H](CC(C)C)C(=O)N[C@@H](CO)C(=O)N[C@@H](CC(N)=O)C(=O)N[C@@H](CC(C)C)C(N)=O)[C@@H](C)O [ILGKLLSTAAKLLSNL]
[12]
  MIC: 16 µM (≈ 26.5 µg/mL)
[26]
  MIC: 4 µM (≈ 6.62 µg/mL)
[16]
  MIC: ≥ 32 µM
[7]
  MIC: 32 µM (≈ 52.9 µg/mL)
[27]
  MIC: 32 µM (≈ 52.9 µg/mL)
[28]
  MIC: 4 µM (≈ 6.62 µg/mL)
[19]
  MIC: 8 µM (≈ 13.2 µg/mL)
[29]
  MIC: ≥ 32 µM
[21]
  MIC: 4 µM (≈ 6.62 µg/mL)

## CC[C@H](C)[C@H](NC(=O)[C@@H](N)C(C)C)C(=O)N1CCC[C@H]1C(=O)N[C@@H](Cc1ccccc1)C(=O)N[C@H](C(=O)N[C@@H](C)C(=O)N[C@@H](CO)C(=O)N[C@H](C(=O)N[C@@H](C)C(=O)N[C@@H](C)C(=O)N[C@@H](CCC(=O)O)C(=O)N[C@@H](CCSC)C(=O)N[C@@H](CCSC)C(=O)N[C@@H](Cc1cnc[nH]1)C(=O)N[C@@H](Cc1cnc[nH]1)C(=O)N[C@H](C(=O)N[C@@H](Cc1ccc(O)cc1)C(=O)N[C@H]1CSSC[C@@H](C(=O)O)NC(=O)[C@H](CCCN=C(N)N)NC(=O)[C@H](CCCCN)NC(=O)[C@H](CO)NC(=O)[C@H](C)NC(=O)[C@H](C)NC1=O)C(C)C)C(C)C)C(C)C [VIPFVASVAAEMMHHVYCAASKRC]
Pseudomonas aeruginosa
  MIC: > 76.3 µM
Micrococcus luteus
  MIC: 9.54 µM (≈ 25 µg/mL)
Klebsiella pneumoniae
  MIC: > 76.3 µM
Salmonella typhimurium
  MIC: ≥ 76.3 µM
Serratia marcescens
  MIC: ≥ 76.3 µM
Shigella dysenteriae
  MIC: ≥ 76.3 µM
Bacillus subtilis
  MIC: ≥ 76.3 µM
Candida albicans
  MIC: 76.3 µM (≈ 200 µg/mL)
Escherichia coli
  MIC: > 76.3 µM
Proteus mirabilis
  MIC: ≥ 76.3 µM

Source: DBAASP
